Reference: publication PMC3139435 (Bioorganic & medicinal chemistry letters, 2011)
Where two headings read alike, the source gives them in different places. One block for each molecule: values may come before it.

Key:
[1] = target: T1, human MIF (Homo sapiens, UniProt P14174); assay: Mass spectrometric; details: 30 µM each of MIF and compound, one hour at 25 °C
T1 sequence (P14174 2-115 limits assumed): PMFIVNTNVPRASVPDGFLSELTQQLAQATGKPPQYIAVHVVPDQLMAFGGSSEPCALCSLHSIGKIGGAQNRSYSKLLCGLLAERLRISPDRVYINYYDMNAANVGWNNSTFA

[2] = system: MIF-dependent ERK1/2 phosphorylation; details: synovial fibroblasts; for effect on MIF-enhanced ERK phosphorylation (in words): co-administration with MIF, Figure 2
[3] = target: T1, human MIF; details: cited from earlier work

- fraction of MIF covalently modified [1]: ca. 3%
SMILES: O=c1c2ccc(F)cc2sn1-c1ccc(Cl)cc1 [1a, 2-(4-chlorophenyl)-6-fluoro-benzo[d]isothiazol-3(2H)-one]

SMILES: N#Cc1ccc(-n2sc3cc(F)ccc3c2=O)cc1 [1c]
- effect on MIF-enhanced ERK phosphorylation (in words) [2]: substantial reduction of phosphorylation

SMILES: O=c1c2ccc(O)cc2sn1-c1ccc(Cl)cc1 [1w]
- reduction of ERK phosphorylation ([2]; at 100 nM, added with MIF for 30 minutes): 20%
- reduction of ERK phosphorylation ([2]; at 1 µM, added with MIF for 30 minutes): 35%
- effect on MIF-enhanced ERK phosphorylation (in words) [2]: substantial reduction of phosphorylation

SMILES: Ic1cc(-c2ccccc2)ncn1 [4-IPP, 4-iodo-6-phenylpyrimidine]
- fraction of the protein (MIF) covalently modified [3]: ca. 20%

SMILES: COC(=O)CC1CC(c2ccc(O)cc2)=NO1 (stereo not shown) [ISO-1, reference compound]
- reduction of ERK phosphorylation ([2]; at 2 µM, racemate): 19%
